The text below walks through data of patent US20150141381A1, “TETRACYCLINE COMPOUNDS HAVING TARGET THERAPEUTIC ACTIVITIES” (Paratek Pharmaceuticals, Inc., priority 2001, published 2015).

Molecules are shown by their SMILES. Where two headings read alike, the source gives them in different places.

One assay deals with S. aureus RN450. Put plainly: In Vitro Anti-Bacterial Activity Assay (MIC), gram positive. It counts as cell-based. Particulars: Staphylococcus aureus, RN450, 18 h.
The next assay concerns E. coli mL308 225. The experiment in a line: In Vitro Anti-Bacterial Activity Assay (MIC), gram negative. It counts as cell-based. Particulars: Escherichia coli, ML308225, 18 h.
[1] abbreviates: gram positive bacteria, read-out: Antibiotic Activity Gram + (MIC).
Setting [2] is: gram negative bacteria, read-out: Antibiotic Activity Gram − (MIC).
[3] abbreviates: MIC class, Table 3 (Continued), read-out: Gram+ activity.
The mark [4] stands for this setting: MIC class, Table 3 (Continued), read-out: Gram− activity.
Where [5] appears, read: MIC class, Table 3, read-out: Antibiotic Activity Gram +.
Setting [6] is: MIC class, Table 3, read-out: Antibiotic Activity Gram −.

As for `CN(C)[C@@H]1C(O)=C(C(N)=O)C(=O)[C@@]2(O)C(O)=C3C(=O)c4c(O)ccc(-c5ccncc5)c4C[C@H]3C[C@@H]12`, the MIC with S. aureus RN450 (setting [1]) and with E. coli mL308 225 (setting [2]) was below 4 mg/L in each case.

Turning to `C#Cc1cc(N(C)C)c2c(c1O)C(=O)C1=C(O)[C@]3(O)C(=O)C(C(N)=O)=C(O)C(N(C)C)[C@@H]3C[C@@H]1C2` (stereo partly shown), the MIC with S. aureus RN450 (setting [3]) is below 4 mg/L; in the assay with E. coli mL308 225 (setting [4]), above 4 mg/L.

Take `CN(C)c1cc(CNCc2ccc(OC(F)(F)F)cc2)c(O)c2c1C[C@H]1C[C@H]3[C@H](N(C)C)C(O)=C(C(N)=O)C(=O)[C@@]3(O)C(O)=C1C2=O` [PJ]: the figures for the MIC in the assay with S. aureus RN450 (setting [5]) and in the assay with E. coli mL308 225 (setting [6]) were below 4 mg/L and above 4 mg/L, respectively.

As for `CN(C)[C@@H]1C(O)=C(C(N)=O)C(=O)[C@@]2(O)C(O)=C3C(=O)c4c(O)ccc(/C=C(\Cl)CO)c4C[C@H]3C[C@@H]12`, the MIC in the assay with S. aureus RN450 (setting [3]) was below 4 mg/L; in the assay on E. coli mL308 225 (setting [4]), above 4 mg/L.

Take `CN(C)[C@@H]1C(OCc2ccccc2)=C(C(N)=O)C(=O)[C@@]2(O)C(O)=C3C(=O)c4c(O)cccc4C[C@H]3C[C@@H]12`: the MIC with S. aureus RN450 (setting [1]) and in the assay with E. coli mL308 225 (setting [2]) was above 4 mg/L in each case.

For `CN(C)[C@@H]1C(OCc2ccccc2)=C(C(N)=O)C(=O)[C@@]2(O)C(O)=C3C(=O)c4c(cccc4OCc4ccccc4)C[C@H]3C[C@@H]12` [OJ], the MIC with S. aureus RN450 (setting [5]) and in the assay on E. coli mL308 225 (setting [6]) was above 4 mg/L each time.

In the case of `CN(C)c1cc(CNCc2cc(F)c(F)c(F)c2)c(O)c2c1C[C@H]1C[C@H]3[C@H](N(C)C)C(O)=C(C(N)=O)C(=O)[C@@]3(O)C(O)=C1C2=O`, the MIC with S. aureus RN450 (setting [1]) and in the assay on E. coli mL308 225 (setting [2]) was below 4 mg/L each time.

With `CN(C)[C@@H]1C(O)=C(C(N)=O)C(=O)[C@@]2(O)C(O)=C3C(=O)c4c(ccc(N)c4O)C[C@H]3C[C@@H]12` [JU], the MIC in the assay on S. aureus RN450 (setting [5]) and in the assay on E. coli mL308 225 (setting [6]) was below 4 mg/L throughout.

In the case of `COc1ccc(CNCc2ccc(-c3ccc(O)c4c3C[C@H]3C[C@H]5[C@H](N(C)C)C(O)=C(C(N)=O)C(=O)[C@@]5(O)C(O)=C3C4=O)cc2)cc1` [GX], the MIC with S. aureus RN450 (setting [5]) and in the assay on E. coli mL308 225 (setting [6]) was below 4 mg/L each time.

Take `C=C(Cl)c1cc(C(C)(C)C)c(O)c2c1C[C@H]1C[C@H]3[C@H](N(C)C)C(O)=C(C(N)=O)C(=O)[C@@]3(O)C(O)=C1C2=O`: the MIC in the assay with S. aureus RN450 (setting [1]) and with E. coli mL308 225 (setting [2]) was below 4 mg/L in each case.

Consider `CN(C)[C@@H]1C(O)=C(C(N)=O)C(=O)[C@@]2(O)C(O)=C3C(=O)c4c(O)ccc(-c5ccc(CNc6ccccc6)cc5)c4C[C@H]3C[C@@H]12`, for which the MIC in the assay on S. aureus RN450 (setting [1]) is below 4 mg/L; with E. coli mL308 225 (setting [2]), above 4 mg/L.

Take `CCc1ccc(O)c2c1C[C@H]1C[C@H]3[C@@H](N(C)C)C(O)=C(C(N)=O)C(=O)[C@@]3(O)C(O)=C1C2=O` [DM]: the MIC in the assay with S. aureus RN450 (setting [5]) was below 4 mg/L; in the assay on E. coli mL308 225 (setting [6]), above 4 mg/L.

On to `COc1ccc(OC(=O)Nc2ccc(-c3ccc(O)c4c3C[C@H]3C[C@H]5[C@@H](N(C)C)C(O)=C(C(N)=O)C(=O)[C@@]5(O)C(O)=C3C4=O)cc2)cc1` [GC], for which the MIC in the assay on S. aureus RN450 (read-out: Antibiotic Activity Gram +) and in the assay on E. coli mL308 225 (read-out: Antibiotic Activity Gram −) was above 4 mg/L throughout.

`CC(C)NCc1cc(N(C)C)c2c(c1O)C(=O)C1=C(O)[C@]3(O)C(=O)C(C(N)=O)=C(O)[C@@H](N(C)C)[C@@H]3C[C@@H]1C2`: the MIC was below 4 mg/L in the assay with S. aureus RN450 (setting [1]) and above 4 mg/L in the assay on E. coli mL308 225 (setting [2]).

As for `COC(=O)CCc1cccc(-c2ccc(O)c3c2C[C@H]2C[C@H]4[C@H](N(C)C)C(O)=C(C(N)=O)C(=O)[C@@]4(O)C(O)=C2C3=O)c1`, the MIC with S. aureus RN450 (setting [1]) is below 4 mg/L; in the assay with E. coli mL308 225 (setting [2]) it was above 4 mg/L.

As to `COC(=O)c1ccc(CNCc2cc(N(C)C)c3c(c2O)C(=O)C2=C(O)[C@]4(O)C(=O)C(C(N)=O)=C(O)[C@@H](N(C)C)[C@@H]4C[C@@H]2C3)cc1`, the MIC in the assay on S. aureus RN450 (setting [1]) was below 4 mg/L; in the assay on E. coli mL308 225 (setting [2]) it was above 4 mg/L.

As for `CN(C)[C@@H]1C(OCc2ccccc2)=C(C(N)=O)C(=O)[C@@]2(O)C(O)=C3C(=O)c4c(O)ccc(-c5ccc(C(F)(F)F)cc5)c4C[C@H]3C[C@@H]12` [OU], the MIC was below 4 mg/L with S. aureus RN450 (setting [5]) and above 4 mg/L in the assay with E. coli mL308 225 (setting [6]).
